# Test results taken from patent US20250163052A1, “cGAS INHIBITORS AND USES THEREOF” (Cornell University, priority 2022, published 2025).
# Experiments:
# [1] = tested on: THP1 cells; assay: THP1-Dual cells, cell viability (CellTiter-Glo); type: cell-based
# Method: (§1) Evaluation of active cGAS inhibitors in THP1 cells (Table 3). Cellular activity of all compounds (in Table 3) was determined using THP1-Dual™ cells as described (Lama et. al., 2019). THP1-Dual™ cells (Invivogen) (50000 cells in 100 μl media) were seeded into each well of a 96-well plate and treated with compounds at various dilution for 4 hours. Subsequently, cells were transfected with DNA (2 ug/ml) and lipofectamine and incubate the cells were incubated overnight. Ifnb expression was measured in cell supernatant using Quantiluc, nfkb expression was determined using Quantiblue, and cell viability using Promega® CellTiter-Glo®.
# [2] = target: h-cGAS (Homo sapiens, UniProt Q8N884); assay: Cell-free human cGAS enzyme inhibition assay (ATP depletion, Kinase-Glo Max); type: biochemical; conditions: 3 h; for inhibition at 1 µM: read-out: h-cGAS, conc. 1 μM; for inhibition at 10 µM: read-out: h-cGAS, conc. 10 μM
# Method: (§2) Cell-free mouse and human cGAS enzyme inhibition assay (Table 2). Activity of all compounds (in Table 1) against m-cGAS (30 nM) and or h-cGAS, (100 nM) was determined by measuring the conversion of ATP and GTP (100 μM each) to cGAMP in the presence of dsDNA (5 ug/mL) in a reaction buffer composed of Tris-HCl (20 mM, pH7.4), NaCl (150 mM), MnCl2 (0.2 mM, h-cGAS) or MgCl2 (5 mM, m-cGAS) and Tween-20 (0.01%), and the remaining ATP concentration using Kinase-Glo®Max Luminescent Kinase Assay (Promega, Madison, WI), as described (Lama, et. al., 2019). Briefly, 10 μl of a master mix of 0.4 mM ATP, 0.4 mM GTP, 0.02 mg/mL dsDNA in the reaction buffer supplemented with 2 mM DTT was added to reaction wells containing TDI-6570 or TDI-8246 (2× of the desired concentration) in the same buffer ([…]) using a Thermo 8-channel Multidrop Combi dispenser. Next, 10 μl of a 4×m-cGAS (0.120 μM) or h-cGAS (0.4 μM) solution in the reaction buffer supplemented with 2 mM DTT was added to appropriate wells. Similar sets of reactions without cGAS or the inhibitor was set by adding the buffer alone. The reactions with the plates sealed were incubated at 37° C. (1 hour for m-cGAS and 3 hours for h-cGAS) and stopped by addition of 40 μl of the Kinase-Glo®Max. The luminescence was recorded in relative light units (RLUs) using a Biotek Synergy H1 Hybrid plate reader (BioTek, Winooski, VT). […] All reactions were run in triplicates and calculated using GraphPad Prism 9. The values represent mean IC50±S.D.
# [3] = tested on: NFkB-SEAP; assay: THP1-Dual cells transfected with DNA, nfkb expression (Quantiblue); type: cell-based; conditions: Homo sapiens; for inhibition at 10 µM: THP-1, 10 μM; for inhibition at 30 µM: THP-1, 30 μM
# Method: as §1
# [4] = tested on: IFNB; assay: THP1-Dual cells transfected with DNA, Ifnb expression (Quantiluc); type: cell-based; conditions: Homo sapiens; for inhibition at 10 µM: THP-1, 10 μM; for inhibition at 30 µM: THP-1, 30 μM
# Method: as §1
# [5] = target: m-cGAS (Mus musculus, UniProt Q8C6L5); assay: Cell-free mouse cGAS enzyme inhibition assay (ATP depletion, Kinase-Glo Max); type: biochemical; conditions: 1 h; for inhibition at 1 µM: read-out: m-cGAS, conc. 1 μM; for inhibition at 10 µM: read-out: m-cGAS, conc. 10 μM
# Method: as §2
# h-cGAS, sequence (Q8N884 whole entry): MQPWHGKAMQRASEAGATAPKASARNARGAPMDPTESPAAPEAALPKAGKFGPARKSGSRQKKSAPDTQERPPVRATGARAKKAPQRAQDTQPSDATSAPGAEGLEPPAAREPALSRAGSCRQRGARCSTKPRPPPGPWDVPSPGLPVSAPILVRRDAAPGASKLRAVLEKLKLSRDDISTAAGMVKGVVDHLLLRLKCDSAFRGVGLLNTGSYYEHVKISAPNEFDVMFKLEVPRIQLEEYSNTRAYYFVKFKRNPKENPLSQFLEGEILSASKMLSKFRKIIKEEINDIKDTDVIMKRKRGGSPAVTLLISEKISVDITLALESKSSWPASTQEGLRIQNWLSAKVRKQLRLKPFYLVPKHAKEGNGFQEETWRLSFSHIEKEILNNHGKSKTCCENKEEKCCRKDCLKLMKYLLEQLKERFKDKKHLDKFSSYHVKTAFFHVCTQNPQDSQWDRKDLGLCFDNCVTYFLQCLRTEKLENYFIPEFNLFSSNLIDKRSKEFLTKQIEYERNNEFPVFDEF
# m-cGAS, sequence (Q8C6L5 whole entry): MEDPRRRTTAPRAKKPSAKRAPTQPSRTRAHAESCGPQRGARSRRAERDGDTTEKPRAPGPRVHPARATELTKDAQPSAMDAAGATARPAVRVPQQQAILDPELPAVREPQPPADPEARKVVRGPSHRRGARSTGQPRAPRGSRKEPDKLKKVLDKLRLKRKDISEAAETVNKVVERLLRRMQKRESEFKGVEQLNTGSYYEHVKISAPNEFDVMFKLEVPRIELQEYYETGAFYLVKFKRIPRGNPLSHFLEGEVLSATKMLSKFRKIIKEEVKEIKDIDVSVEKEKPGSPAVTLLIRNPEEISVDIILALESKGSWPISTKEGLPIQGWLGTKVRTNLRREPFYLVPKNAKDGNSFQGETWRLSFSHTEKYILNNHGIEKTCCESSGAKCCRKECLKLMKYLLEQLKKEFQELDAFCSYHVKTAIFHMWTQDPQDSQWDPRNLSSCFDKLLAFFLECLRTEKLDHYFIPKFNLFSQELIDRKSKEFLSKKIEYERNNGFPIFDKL
SMILES,Cell viability 10 μM [1],Cell viability 30 μM [1],inhibition at 1 µM [2],inhibition at 10 µM [2],inhibition at 10 µM [3],inhibition at 30 µM [3],inhibition at 10 µM [4],inhibition at 30 µM [4],inhibition at 1 µM [5],inhibition at 10 µM [5]
NCC(=O)N1CCc2c(sc3c(Cl)c(Cl)cc(-c4cncs4)c23)C1 [Compound 87],"− (Cell viability <24%, in THP1 cells is expressed as “−”)","− (Cell viability <24%, in THP1 cells is expressed as “−”)",0 to 24%,50 to 74%,50 to 74%,75 to 100%,75 to 100%,75 to 100%,25 to 49%,75 to 100%
NCC(=O)N1CCc2c(sc3c(Cl)c(Cl)cc(-n4ccnc4)c23)C1 [Compound 97],"+++ (+, ++, and +++ mean the compound respectively shows 25-49%; 50-74%; or 75-100% viability to cells)","+++ (+, ++, and +++ mean the compound respectively shows 25-49%; 50-74%; or 75-100% viability to cells)",,25 to 49%,25 to 49%,75 to 100%,50 to 74%,75 to 100%,,50 to 74%
NCC(=O)N1CCc2c(sc3c(Cl)c(Cl)cc(-c4cncnc4)c23)C1 [Compound 73],"+++ (+, ++, and +++ mean the compound respectively shows 25-49%; 50-74%; or 75-100% viability to cells)","− (Cell viability <24%, in THP1 cells is expressed as “−”)",0 to 24%,50 to 74%,< 24%,75 to 100%,< 24%,75 to 100%,0 to 24%,50 to 74%
O=C(CO)N1CCc2oc3c(Cl)c(Cl)cc(-c4cncnc4)c3c2C1 [Compound 25],"+++ (+, ++, and +++ mean the compound respectively shows 25-49%; 50-74%; or 75-100% viability to cells)",,25 to 49%,50 to 74%,< 24%,,,< 24%,0 to 24%,50 to 74%
NCC(=O)N1CCc2c(sc3c(Cl)c(Cl)cc(-c4cc[nH]n4)c23)C1 [Compound 77],"+++ (+, ++, and +++ mean the compound respectively shows 25-49%; 50-74%; or 75-100% viability to cells)","− (Cell viability <24%, in THP1 cells is expressed as “−”)",25 to 49%,50 to 74%,50 to 74%,75 to 100%,25 to 49%,75 to 100%,25 to 49%,75 to 100%
Cn1cc(-c2cc(Cl)c(Cl)c3sc4c(c23)CCN(C(=O)CO)C4)cn1 [Compound 62],"+++ (+, ++, and +++ mean the compound respectively shows 25-49%; 50-74%; or 75-100% viability to cells)",,,25 to 49%,< 24%,,50 to 74%,,25 to 49%,75 to 100%
NCC(=O)N1CCc2c(sc3c(Cl)c(Cl)cc(-c4ccco4)c23)C1 [Compound 80],"+++ (+, ++, and +++ mean the compound respectively shows 25-49%; 50-74%; or 75-100% viability to cells)","− (Cell viability <24%, in THP1 cells is expressed as “−”)",25 to 49%,75 to 100%,50 to 74%,75 to 100%,50 to 74%,75 to 100%,25 to 49%,75 to 100%
NCC(=O)N1CCc2c(sc3c(Cl)c(Cl)cc(-c4cnccn4)c23)C1 [Compound 90],"+++ (+, ++, and +++ mean the compound respectively shows 25-49%; 50-74%; or 75-100% viability to cells)","− (Cell viability <24%, in THP1 cells is expressed as “−”)",0 to 24%,50 to 74%,25 to 49%,75 to 100%,25 to 49%,50 to 74%,25 to 49%,50 to 74%
Cn1cc(-c2cc(Cl)c(Cl)c3c2c2c(n3C)CCN(C(=O)CNC(=O)OC(C)(C)C)C2)cn1 [Compound 10],"+++ (+, ++, and +++ mean the compound respectively shows 25-49%; 50-74%; or 75-100% viability to cells)","+++ (+, ++, and +++ mean the compound respectively shows 25-49%; 50-74%; or 75-100% viability to cells)",,75 to 100%,< 24%,50 to 74%,< 24%,75 to 100%,,0 to 24%
NCC(=O)N1CCc2c(sc3c(Cl)c(Cl)cc(-c4ccccn4)c23)C1 [Compound 86],"+++ (+, ++, and +++ mean the compound respectively shows 25-49%; 50-74%; or 75-100% viability to cells)","− (Cell viability <24%, in THP1 cells is expressed as “−”)",0 to 24%,50 to 74%,< 24%,50 to 74%,< 24%,75 to 100%,0 to 24%,25 to 49%
O=C(CO)N1CCc2[nH]c3c(Cl)c(Cl)cc(O)c3c2C1 [Compound 3],"+++ (+, ++, and +++ mean the compound respectively shows 25-49%; 50-74%; or 75-100% viability to cells)","+++ (+, ++, and +++ mean the compound respectively shows 25-49%; 50-74%; or 75-100% viability to cells)",50 to 74%,75 to 100%,< 24%,< 24%,< 24%,,75 to 100%,75 to 100%
NCC(=O)N1CCc2c(sc3c(Cl)c(Cl)cc(-c4ccncc4)c23)C1 [Compound 79],"+ (+, ++, and +++ mean the compound respectively shows 25-49%; 50-74%; or 75-100% viability to cells)","− (Cell viability <24%, in THP1 cells is expressed as “−”)",,25 to 49%,50 to 74%,75 to 100%,75 to 100%,75 to 100%,25 to 49%,75 to 100%
Cn1ncc(-c2cc(Cl)c(Cl)c3sc4c(c23)CCN(C(=O)CN)C4)n1 [Compound 92],"++ (+, ++, and +++ mean the compound respectively shows 25-49%; 50-74%; or 75-100% viability to cells)","− (Cell viability <24%, in THP1 cells is expressed as “−”)",25 to 49%,50 to 74%,75 to 100%,75 to 100%,75 to 100%,75 to 100%,25 to 49%,75 to 100%
Cn1c2c(c3c(-c4cncnc4)cc(Cl)c(Cl)c31)CN(C(=O)CN)CC2 [Compound 8],"+++ (+, ++, and +++ mean the compound respectively shows 25-49%; 50-74%; or 75-100% viability to cells)","− (Cell viability <24%, in THP1 cells is expressed as “−”)",50 to 74%,75 to 100%,25 to 49%,50 to 74%,50 to 74%,75 to 100%,,0 to 24%
Cn1cnc(-c2cc(Cl)c(Cl)c3sc4c(c23)CCN(C(=O)CN)C4)c1 [Compound 93],"+++ (+, ++, and +++ mean the compound respectively shows 25-49%; 50-74%; or 75-100% viability to cells)","− (Cell viability <24%, in THP1 cells is expressed as “−”)",0 to 24%,50 to 74%,< 24%,50 to 74%,< 24%,75 to 100%,0 to 24%,50 to 74%
